The values that follow come from ChEMBL document CHEMBL3102777, “Binding ability of a thymine-functionalized oligolysine towards nucleic acids” (Bioorg Med Chem, 2014).

Activity calls are given as the source filed them. The calls are words filed in the database; no cut-off is given here. Residues, ends and D or L forms follow the SMILES beside them. *: point of attachment. Acetyl(thymin-1-yl) = Cc1cn(CC(=O)*)c(=O)[nH]c1=O

Data set [1] is described as follows: Binding affinity to […] RNA (unknown origin) by surface plasmon resonance assay.
A short description of data set [2]: Binding affinity to dA12 DNA (unknown origin) at 24 nM by circular dichroism analysis.
Data set [3] is described as follows: Binding affinity to poly rA RNA (unknown origin) at 2:1 compound to RNA ratio by circular dichroism analysis.
Data set [4] in a line: Binding affinity to poly rA RNA (unknown origin) at 2:1 compound to RNA ratio assessed as melting temperature by circular dichroism analysis.
A short description of data set [5]: Binding affinity to poly rA RNA (unknown origin) by surface plasmon resonance assay.
Data set [6] in a line: Binding affinity to […] RNA (unknown origin) at 2:1 compound to RNA ratio by circular dichroism analysis.
A short description of data set [7]: Binding affinity to dT12 DNA (unknown origin) at 24 nM by circular dichroism analysis.
The nature of data set [8]: Binding affinity to poly rA RNA (unknown origin) at 24 nM by circular dichroism analysis.
A short description of data set [9]: Half life in 94% human serum at 14 uM. In kind it is ADME.
Data set [10] can be described thus: Binding affinity to dA12 DNA (unknown origin) at 10 uM assessed as melting temperature by UV analysis.
Data set [11] is described as follows: Binding affinity to […] RNA (unknown origin) at 1.5:1 compound to RNA ratio by circular dichroism analysis.
Data set [12] can be described thus: Binding affinity to dA12 DNA (unknown origin) at 2.5:1 compound to DNA ratio by circular dichroism analysis.
A short description of data set [13]: Binding affinity to […] RNA (unknown origin) at 12.8 uM assessed as melting temperature by UV analysis.

Turning to `Cc1cn(CC(=O)NCCCC[C@H](NC(=O)[C@H](CCCCN)NC(=O)[C@H](CCCCNC(=O)Cn2cc(C)c(=O)[nH]c2=O)NC(=O)[C@H](CCCCN)NC(=O)[C@H](CCCCNC(=O)Cn2cc(C)c(=O)[nH]c2=O)NC(=O)[C@H](CCCCN)NC(=O)[C@H](CCCCNC(=O)Cn2cc(C)c(=O)[nH]c2=O)NC(=O)[C@H](CCCCN)NC(=O)[C@H](CCCCNC(=O)Cn2cc(C)c(=O)[nH]c2=O)NC(=O)[C@H](CCCCN)NC(=O)[C@@H](N)CCCCNC(=O)Cn2cc(C)c(=O)[nH]c2=O)C(=O)N[C@@H](CCCCN)C(N)=O)c(=O)[nH]c1=O` (H-K(Acetyl(thymin-1-yl))KK(Acetyl(thymin-1-yl))KK(Acetyl(thymin-1-yl))KK(Acetyl(thymin-1-yl))KK(Acetyl(thymin-1-yl))KK(Acetyl(thymin-1-yl))K-NH2), the outcome in [1], in data set [2], in [3], in [5], in data set [6] and in data set [7] was Active. Besides, the result in data set [8], in data set [11] and in data set [12] was Active. The figures for the Tm in [4], in [10] and in data set [13] were 35 °C, 25 °C and 27 °C, respectively. Besides, in data set [9], the half-life at 14 µM turned out to be 45 min.
